The nature of one data set: in vivo. The following applies: mouse.
Data set [1] deals with bacterial reverse mutation. Put plainly: Standard bacterial reverse mutation assays.
Data set [2] has as its system transient global cerebral ischemia in gerbils. In words: Neuroprotection from transient global cerebral ischemia in gerbils. Type of data set: in vivo, Mongolian gerbils. The following applies: 50 mg/kg intraperitoneally prior to surgery; two experiments. The procedure: Adult male Mongolian gerbils weighing 60-80 g were intraperitoneally administered 50 mg/kg of Compound 2 prior to surgery to induce transient global cerebral ischemia. The gerbils were operated under anesthesia with 2% halthane in a gas mixture of 70% N2O and 30% O2, followed by maintenance at 1% halothane to surgically expose and clamp the carotid arteries for 5 minutes to prevent the blood flow to the brain. After 5 minutes, the clamps were removed and reperfusion occurred. The gerbils were evaluated for motility and spontaneous alteration in a Y maze test essentially as described in Gupta and Sharma, Biol. Pharm. Bull. 29(5) 957-961 (2006), and were decapitated 4 days after reperfusion for histological evaluation for the neuronal survival in the hippocampal CA-1 area.

The test system of data set [3] is mice under cytotoxic hypoxia. The following applies: mouse, in vivo.
In data set [4] the test system is cardiac ischemia/reperfusion in rats. Put plainly: Experimental cardiac ischemia/reperfusion in rats. Type of data set: in vivo. Conditions: administered prior to ischemia/reperfusion.
The subject of data set [5] is permanent middle cerebral artery occlusion (MCAO) in rats. In words: Functional recovery following permanent MCAO in rats (Example 1). The following applies: for Infarct Volume (%): day 28 after permanent MCAO, percentage of intact contralateral hemispheric volume, mean ± S.E.M. It is filed as in vivo, Sprague Dawley Rats. The source says: The purpose of this study was to evaluate the efficacy of arimoclomol and iroxanadine in enhancing neurological recovery in a model of permanent middle cerebral artery occlusion (MCAO) in rats. The permanent MCAO is a well accepted and considered to be a standard animal model for studying clinical aspects of stroke. (Stroke. 1999; 30:2752-2758.)
Forty male Sprague Dawley Rats, each weighing 300-400 g, which had been housed and handled for behavioral assessment for seven (7) days prior to surgery for acclimation purposes, were operated under anesthesia to create focal cerebral infarcts by permanent occlusion of the proximal right middle cerebral artery (MCA) according to modified Tamura model. Briefly, the rats were anesthetized with 2-3% halothane in the mixture of N2O:O2 (2:1), and were maintained with 1˜1.5% halothane in the mixture of N2O:O2 (2:1). The temporalis muscle was bisected and reflected through an incision made midway between the eye and the eardrum canal. The proximal MCA was exposed through a subtemporal craniectomy without removing the zygomatic arch and without transecting the facial nerve. […] Body temperature was maintained at 37.5° C.±0.5° C. throughout the entire procedure. Cefazolin (40 mg/kg; Baxter, Lot 06014.1, Exp. January 2009) was given i.p. one day before MCAO and just after MCAO to prevent infections.
The rats were randomly divided into 4 groups of 10 animals each. One group was given arimoclomol, p.o., starting at one hour after the occlusion at 200 mg/kg/d once daily for 3 days, then 50 mg/kg/d once daily for a total of 29 days. The second group was given iroxanadine using the same dosing regimen as for arimoclomol. The third group is a positive control group and is given intracistemally 1 μg (at 20 μg/ml, also containing 100 μg/ml of bovine serum albumin) beta-fibroblast growth factor (bFGF) one hour and one day (i.e. two administrations) after the occlusion. The fourth group is a negative control with administration of the vehicle only.
Animals were evaluated preoperation (day −1), then every 7 days after the operation (7, 14, 21, and 28 days) by forelimb and hindlimb placing tests and body swing test, which are widely accepted as standard tests indicative of functional recovery after a stroke model.
For the forelimb placing test, the examiner held the rat close to a tabletop and scored the rat's ability to place the forelimb on the tabletop in response to whisker, visual, tactile, or proprioceptive stimulation. Similarly, for the hindlimb placing test, the examiner assessed the rat's ability to place the hindlimb on the tabletop in response to tactile and proprioceptive stimulation. Separate sub-scores were obtained for each mode of sensory input (halfpoint designations possible), and added to give total scores (for the forelimb placing test: 0=normal, 12=maximally impaired; for the hindlimb placing test: 0=normal; 6=maximally impaired).
For the body swing test, the rat was held approximately one inch from the base of its tail. It was then elevated to an inch above a surface of a table. The rat was held in the vertical axis, defined as no more than […] to either the left or the right side. A swing was recorded whenever the rat moved its head out of the vertical axis to either side. The rat must return to the vertical position for the next swing to be counted. Thirty (30) total swings were counted. A normal rat typically has an equal number of swings to either side. Following focal ischemia, the rat tends to swing to the contralateral (left) side.
The behavior was evaluated by giving the score ranging in the parentheses after each test: • Forelimb placing test (0-12), consisting of whisker tactile placing (0-2); visual placing (forward, sideways) (0-4); tactile placing (dorsal, lateral) (0-4); and proprioceptive placing (0-2); • Hindlimb placing test (0-6), consisting of tactile placing (dorsal, lateral) (0-4); and proprioceptive placing (0-2). […]

[6] abbreviates: treatment from 1 h after occlusion, up to 28 days.

The LD50 is the dose at which mortality reaches 50%. `CC(C)(C)NCC(O)CO/N=C(\Cl)c1cccc(C(F)(F)F)c1` (centres unmarked) [Compound 2, N-[3-(1,1-dimethylethyl)amino-2-hydroxypropoxy]-3-trifluoromethylbenzene-carboximidoyl chloride] yielded a median lethal dose (LD50) in the data set “in vivo” of around 1000 mg/kg. Also, the mutagenicity entry in data set [1] is listed as “not to be mutagenic”. In addition, the “neuroprotection (motility, Y maze, neuronal survival in hippocampal CA-1) compared to control group” value in data set [2] is recorded as “neuroprotective effects”. For the same compound, in data set [3], the “survival time under cytotoxic hypoxia” value is recorded as “significantly increased”. In data set [4], the “duration of ventricular arrhythmias” value is given as “significantly decreased” and the overall survival result is “increased”.
As to `c1cncc(C2=NOCC(CN3CCCCC3)N2)c1` (centres unmarked) [iroxanadine, 5,6-dihydro-5(1-piperidinyl)-methyl-3-(3-pyridyl)-4H-1,2,4-oxadiazine], in data set [5], the “Infarct Volume (%)” value is 21.8 ± 2.1%.
In the case of “bFGF: positive control, beta-fibroblast growth factor (bFGF) given intracisternally”, in data set [5], the “Infarct Volume (%)” value worked out at 23.1 ± 1.7%. Also, in data set [5] (setting [6]), the “Body Swing Test, recovery compared to vehicle group” value was “superior to the vehicle group”; the “Forelimb Placing Test, recovery compared to vehicle group” value was “superior to the vehicle group”; the “Hindlimb Placing Test, recovery compared to vehicle group” value is recorded as “superior to the vehicle group”.

The record behind these values is patent publication US20090233917A1, “Stroke recovery” (priority 2006, published 2009).
